From patent US20260001928A1 (CORTERIA PHARMACEUTICALS, priority 2022, published 2026)
*1 amine or outer side, *2 acyl side, *3 side chain or, on linkers, in order; H or OH if unused. Where a SMILES comes first, the peptide text is derived from it. Side-chain parts run from the residue outwards. [ ]: non-standard residue; d: D form. The star is where a group is joined. C20 diacid = O=C(O)CCCCCCCCCCCCCCCCCCC(=O)*; γGlu = O=C(O)[C@H](CCC(=O)[*:2])N[*:1]; NMeI = CC[C@H](C)[C@H](NC)C(=O)O; Aib = CC(C)(N)C(=O)O

How the values were obtained:
human CRF2a receptor = target: T1, human CRF2a receptor (Homo sapiens, UniProt Q13324); assay: Activity at human CRF2a receptor, cAMP functional assay in TeloHEAC cells; format: cell-based; conditions: TeloHEAC cells stably expressing human CRF2a receptor, relative to urocortin 2 (100 nM = 100%)
T1 construct: expressed in transfected cells; host or cells: TeloHEAC cells
T1 sequence (Q13324 1-411): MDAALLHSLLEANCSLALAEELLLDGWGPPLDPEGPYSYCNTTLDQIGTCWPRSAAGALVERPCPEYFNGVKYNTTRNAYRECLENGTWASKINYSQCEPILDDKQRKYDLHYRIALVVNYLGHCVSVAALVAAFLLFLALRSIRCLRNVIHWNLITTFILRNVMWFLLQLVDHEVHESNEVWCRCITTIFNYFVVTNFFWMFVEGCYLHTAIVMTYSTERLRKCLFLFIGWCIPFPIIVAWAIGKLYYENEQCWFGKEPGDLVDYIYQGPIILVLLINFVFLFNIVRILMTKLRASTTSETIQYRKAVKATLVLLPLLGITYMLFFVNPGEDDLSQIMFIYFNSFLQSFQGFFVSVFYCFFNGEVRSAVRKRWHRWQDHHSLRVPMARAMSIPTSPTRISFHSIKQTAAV
Procedure, shortened: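 cAMP accumulation was measured by HTRF 665/620 nm ratio after 30 min at 37° C compound exposure (16 twofold dilutions) of CRF2a-expressing TeloHEAC cells, 10000/well, in HEPES-buffered HBSS plus IBMX. Activity was normalised to urocortin 2 at 100 nM (100%), and EC50 was the concentration giving half-maximal activation.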

[1] = In vitro plasma stability, human plasma; format: in vitro ADME; parameters: dose or concentration left out as unconfirmed; conditions: Human PLM, 37° C.
Description: (§1) In vitro plasma metabolic stability was studied in male Sprague Dawley rats and human. Test compounds were incubated at 3 M for 2 hours at 37° C. At each time point (0, 0.25, 1 and 2 h), samples were prepared for analysis by means of a single step protein precipitation technique by adding 150 μL of ethanol, 0.1% formic acid to 50 μL aliquots of plasma. Samples were mixed by vortex for homogeneity and then subjected to centrifugation at 14000 rpm for 15 min. The supernatant (100 μL) was collected, diluted with 100 μL of water, 0.1% formic acid and analyzed by LC-HRMS (TripleTOF 6600+, AB Sciex). For each test compound, the area ratios at each time point were compared to the 0 h area ratio and converted to a percentage remaining.

[2] = Chemical stability in buffer (pH 7.4 / pH 4.5), % purity loss; format: physicochemical; conditions: 100 mM phosphate buffer pH 7.4; 40° C. vs 5° C.; 14 or 28 days
Procedure, shortened: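 LC-UV gave % loss after 14 or 28 days of storage at 5 °C or 40 °C. Samples were diluted supernatants from compound incubated 1 h at room temperature at 10 mg/mL target, in 100 mM acetate pH 4.5 or 100 mM phosphate pH 7.4.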

[3] = Pharmacokinetics in male Sprague Dawley rats after subcutaneous administration; format: in vivo; conditions: plasma, rat
Sprague Dawley rats = assay: Effect on systolic blood pressure, telemetry in Sprague Dawley rats; format: in vivo, rat; conditions: 0.1 mg/kg SC
Procedure, shortened: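 Values are % change from a 1 h pre-dose baseline in systolic pressure, tracked by telemetry for up to 48 hours after a single 0.1 mg/kg subcutaneous dose. Rats (Sprague Dawley, n=2 per peptide) carried aortic catheters and recovered at least 10 days post-surgery; duration of action marks the last time point still showing an effect.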

[4] = In vitro subcutaneous tissue supernatant (SCts) stability and metabolite identification, rat; format: in vitro ADME; parameters: remaining at 2 h: dose or concentration left out as unconfirmed; conditions: male, Sprague Dawley; rat subcutaneous tissue supernatant (SCts), 37° C, 2 h
[5] = In vitro plasma stability, rat plasma; format: in vitro ADME; parameters: remaining at 2 h: dose or concentration left out as unconfirmed; conditions: male, Sprague Dawley, plasma; Rat PLM, 37° C.
Description: as §1

EC50 (human CRF2a receptor): 110 pM
remaining at 2 h [1]: 99%
Buffer stability pH 7.4 % purity loss [2]: 0.0/Not Tested %
AUC(0-t) ([3]; IV, 0.05 mg/kg): 6740 ng·h/mL
half-life ([3]; IV, 0.05 mg/kg): 11 h
Tmax ([3]; SC, 0.1 mg/kg): 24 h
remaining at 2 h [4]: 71%
remaining at 2 h [5]: 109%
SMILES: CC[C@H](C)[C@H](NC)C(=O)N[C@H](C(=O)N[C@@H](CC(C)C)C(=O)N[C@@H](CO)C(=O)N[C@@H](CC(C)C)C(=O)N[C@@H](CC(=O)O)C(=O)N[C@@H](C(=O)N1CCC[C@H]1C(=O)N[C@H](C(=O)N[C@@H](CCCCN)C(=O)N[C@@H](CC(C)C)C(=O)N[C@@H](CCCCNC(=O)CC[C@H](NC(=O)CCCCCCCCCCCCCCCCCCC(=O)O)C(=O)O)C(=O)N[C@@H](CCCCN)C(=O)N[C@H](C(=O)N[C@@H](CC(C)C)C(=O)N[C@@H](CC(C)C)C(=O)N[C@@H](CCC(=O)O)C(=O)N[C@@H](CCC(N)=O)C(=O)N[C@@H](CCC(=O)O)C(=O)N[C@@H](CCCCN)C(=O)N[C@@H](CCC(N)=O)C(=O)N[C@@H](CCCCN)C(=O)N[C@@H](CCC(=O)O)C(=O)N[C@@H](CCC(N)=O)C(=O)N[C@@H](CCCNC(=N)N)C(=O)N[C@@H](CCC(=O)O)C(=O)N[C@@H](CCC(N)=O)C(=O)N[C@@H](C)C(=O)N[C@@H](CCC(=O)O)C(=O)N[C@H](C(=O)N[C@@H](CC(N)=O)C(=O)NC(C)(C)C(=O)N[C@@H](CCC(N)=O)C(=O)N[C@H](C(=O)N[C@@H](CC(C)C)C(=O)N[C@@H](C)C(=O)N[C@@H](CCC(N)=O)C(=O)N[C@H](C(N)=O)C(C)C)[C@@H](C)CC)[C@@H](C)O)[C@@H](C)CC)[C@@H](C)CC)C(C)C)C(C)C [compound 218] (H-[NMeI]VLSLD[dV]PIKLK([γGlu-C20 diacid])KILLEQEKQKEQREQAETN[Aib]QILAQV-NH2)
Systolic blood pressure (Mean) % change from baseline, 8 h (Sprague Dawley rats; 8 h, n=2): −13%
Systolic blood pressure (Mean) % change from baseline, 12 h (Sprague Dawley rats; 12 h, n=2): −17%
Systolic blood pressure (Mean) % change from baseline, 24 h (Sprague Dawley rats; 24 h, n=2): −16%
Duration of action (Sprague Dawley rats; last time point with an effect on BP still observed): >24 h
